For test [1], the target named is muscarinic receptors (Oxo-M binding receptor, forebrain synapse membranes). Kind of test: [3H]-oxotremorine-M ([3H]-Oxo-M) affinity screening test. The following applies: inhibition of 50% of specific binding of [3H]-Oxo-M (5 nM) to the receptor; rat brain membranes. The procedure: [^3H]-oxotremorine-M ([^3H]-Oxo-M) Affinity Screening Test
The experimental principle was the same as [^3H]-NMS affinity screening test. The present experiment was carried out in order to identify the pharmacological functions (an agonist or antagonist) of the compounds showing high affinity in [3H]-NMS affinity screening test. The functions of the compounds may be determined by carrying out both of [^3H]-NMS and [^3H]-Oxo-M (oxotremorine) affinity screening tests to measure their respective IC50 values and calculating ratios (NMS/Oxo-M) of the measured IC50 values. Generally, the compounds are evaluated as muscarinic receptor full agonists when the ratio is greater than 180, as partial agonists when the ratio is from 14 to 130, and as antagonists when the ratio is from 0.2 to 1.9.
Preparation of Brain Membrane
Synapse membranes for binding assay of Oxo-M binding receptor of muscarinic receptors were directly prepared and used in the laboratory as follows: male Sparague-Dawley rats (supplied from Laboratory Animal Center of Korea Research Institute of Chemical Technology, 250 to 300 g) were sacrificed by decapitation. The brain tissues were immediately removed and the forebrain was obtained, which was sectioned into small pieces. After adding 10-fold amount of ice-cooled solution of sucrose (0.32M), the sectioned forebrain was homogenized using Teflon-glass homogenizer (Contorque, Eberbach) at 10 strokes and 500 rpm, centrifuged at 1000 g for 15 minutes, and then the supernatant was again centrifuged at 17000 g for 20 minutes. The pellet was stored at −20° C. and then used.
Before the pellet was used at this assay, it was suspended in 10 mL of […] HEPES buffer (pH 7.4), again centrifuged at 17000 g for 15 minutes and then washed. Finally, the washed membrane was diluted in ice-cooled 20 mM HEPES buffer (pH 7.4) to the final concentration of 1:100 (wet wt/v) and used at this assay. All test samples were tested four times, and 20 mM HEPES buffer (pH 7.4) was used as a buffer for screening test. […] The radioactivity of the receptor binding ligands was detected by Liquid Scintillation Counter (MicroBeta Plus, Wallac, Finland).
The test drugs were diluted sequentially for the required concentrations by dissolving them in dimethylsulfoxide (DMSO) and used in the test. […] From the saturated affinity screening test, Kd and Bmax values, and IC50 or Ki values of respective test drugs were calculated by observing the non-linear regression using prism (Graphpad software Inc., USA). […]
(§1) The following table 1 illustrates the affinity of representative compounds of the present invention for muscarinic receptors measured by binding of [^3H]-N-methyl scopolamine ([^3H]-NMS) and [^3H]-oxotremorine ([^3H]-Oxo-M) to cortex receptor of rats. […]

A further test addresses muscarinic receptors. Description: [3H]-N-methyl-scopolamine ([3H]-NMS) affinity screening test. The arrangement: species or system rat. The following applies: inhibition of 50% of specific binding of [3H]-NMS to the receptor; cortex receptor of rats.
Description: [^3H]-N-methyl-scopolamine ([^3H]-NMS) Affinity Screening Test
In order to exclude the interaction between subtypes, human recombinant muscarinic receptor subtypes 1, 2 and 3 expressed in CHO cells (M1, M2 and M3, Biosignal, Canada) were purchased and used as receptor sources. [^3H]-N-methyl-scopolamine (NEN, NET-636) was used as radioisotope labeled ligands, and atropine was used for the measurement of the non-specific binding ability. About 10 kinds of experimental apparatuses including Liquid Scintillation Counter (MicroBeta 1450 plus), Inotech cell harvester (96-well) were used.
In order to determine the effect of each compound on M1 and M2 receptors, the compounds were reacted with the receptors using radioisotope labeled ligands. After the reaction, the excess unbound ligands were removed by filtering with a glass fiber filter. The amount of radioisotopes remaining on the washed filter plate was then measured to quantify the binding reaction between the receptors and the ligands and, from the results, the affinity of the drugs for the receptors was determined.
The freeze-stored receptors at −70° C. were suspended in test buffer solutions and then the screening test (BioRad protein) was carried out to determine the optimum concentration of the proteins. Thereafter, 50 μL of hot-ligands and 10 μL of test drugs were added to 96-well plate and 100 μL of 50 mM TRIS buffer (pH 7.2) containing 10 mM MgCl2 and 1 mM EDTA was added as a test buffer. The final volume of the reaction was […]. The reaction was initiated by adding 100 μL of the diluted receptor suspension, and continued for 60 minutes on a shaking incubator at 27° C. This test for the test drugs was repeated four times. After 60 minutes, the reaction was terminated by adding cold TRIS buffer (0.5 mL, pH 7.4). The excess unbound radioisotopes were removed from the reaction mixture using Inotech cell harvester system. After washing the mixture, the radioactivity detected by the filter mat was measured using Liquid Scintillation Counter. As primary stage of the efficacy screening, the drugs at two concentrations (1 μM, 10 μM) were screened for their affinity for the receptors. As secondary stage, the drugs showing remarkable efficacies were determined at the lower concentrations. Finally, IC50 values were calculated at the gradient of 10 concentrations. […] From the saturation affinity screening test, Kd and Bmax values, and IC50 or Ki values of each test drugs were calculated by observing the non-linear regression using prism (Graphpad software Inc.,USA). […]
as §1

Results on four compounds are retold here after patent US6759419B2, “Pyrrolidinone derivatives, their preparation and pharmaceutical composition comprising the same” (Korea Institute of Science and Technology, priority 2001, dated 2004).

Molecules are shown by their SMILES. pIC50: −log10 of the molar value.

The term pIC50 denotes the IC50 on a negative log10 scale, so that one unit is a factor of ten. Lower therefore signals a large IC50. Take `COC(=O)C1=CCCN(C)C1` [Arecoline, reference compound]: the pIC50 in test [1] was 6.85; at muscarinic receptors it was 4.06.
The like results for `CN1CCC=C(C2=NOC(N3CCCC3=O)C2)C1` (centres unmarked) [Example 15, 1-[3-(1-methyl-1,2,5,6-tetrahydropyridin-3-yl)-4,5-dihydro-isoxazol-5-yl]-pyrrolidin-2-one] were, in that order, 6.66 and 5.08.
The like results for `CN1CCC=C(C2=NOC(CN3CCCC3=O)C2)C1` (centres unmarked) [Example 18, 1-[3-(1-methyl-1,2,5,6-tetrahydro-pyridin-3-yl)-4,5-dihydro-isoxazol-5-yl-methyl]-pyrrolidin-2-one] were, in that order, 7.52 and 6.74.
Taken in the same sequence, the figures for `CN1CCC=C(c2cc(CN3CCCC3=O)on2)C1` [Example 23, 1-[3-(1-methyl-1,2,5,6-tetrahydro-pyridin-3-yl)-isoxazol-5-yl-methyl]-pyrrolidin-2-one] were 6.43 and 5.83.
